# Columns and labels:
# leukemia SR cells [1] = test: Apoptosis, Annexin-V-FITC/PI; conditions: 3e at 1.90 µM, 24 h
# leukemia SR cells [2] = test: Cell cycle analysis, PI flow cytometry; format: cell-based, human; parameters: increase of cells at pre-G1 phase vs control: concentration or dose not given beside the values
# Experimental: The cells were washed twice using Ice-cold phosphate buffer saline (PBS). • Centrifugation was used to collect the cells, then the cells were fixed in 70% (v/v) ethanol, washed with PBS and re-suspended with 0.10 mg/mL RNase. • After that, cells were stained with […] propidium iodide (PI) and evaluated by flow cytometry using FACSCalibur (Becton Dickinson).
# topoisomerase IIα = target: T1, topoisomerase IIα (Homo sapiens, UniProt P11388); test: Topoisomerase ELISA kit inhibitory assay; format: biochemical; conditions: four concentrations
# T1 construct: purchased MBS2885049
# T1 sequence (P11388 whole entry): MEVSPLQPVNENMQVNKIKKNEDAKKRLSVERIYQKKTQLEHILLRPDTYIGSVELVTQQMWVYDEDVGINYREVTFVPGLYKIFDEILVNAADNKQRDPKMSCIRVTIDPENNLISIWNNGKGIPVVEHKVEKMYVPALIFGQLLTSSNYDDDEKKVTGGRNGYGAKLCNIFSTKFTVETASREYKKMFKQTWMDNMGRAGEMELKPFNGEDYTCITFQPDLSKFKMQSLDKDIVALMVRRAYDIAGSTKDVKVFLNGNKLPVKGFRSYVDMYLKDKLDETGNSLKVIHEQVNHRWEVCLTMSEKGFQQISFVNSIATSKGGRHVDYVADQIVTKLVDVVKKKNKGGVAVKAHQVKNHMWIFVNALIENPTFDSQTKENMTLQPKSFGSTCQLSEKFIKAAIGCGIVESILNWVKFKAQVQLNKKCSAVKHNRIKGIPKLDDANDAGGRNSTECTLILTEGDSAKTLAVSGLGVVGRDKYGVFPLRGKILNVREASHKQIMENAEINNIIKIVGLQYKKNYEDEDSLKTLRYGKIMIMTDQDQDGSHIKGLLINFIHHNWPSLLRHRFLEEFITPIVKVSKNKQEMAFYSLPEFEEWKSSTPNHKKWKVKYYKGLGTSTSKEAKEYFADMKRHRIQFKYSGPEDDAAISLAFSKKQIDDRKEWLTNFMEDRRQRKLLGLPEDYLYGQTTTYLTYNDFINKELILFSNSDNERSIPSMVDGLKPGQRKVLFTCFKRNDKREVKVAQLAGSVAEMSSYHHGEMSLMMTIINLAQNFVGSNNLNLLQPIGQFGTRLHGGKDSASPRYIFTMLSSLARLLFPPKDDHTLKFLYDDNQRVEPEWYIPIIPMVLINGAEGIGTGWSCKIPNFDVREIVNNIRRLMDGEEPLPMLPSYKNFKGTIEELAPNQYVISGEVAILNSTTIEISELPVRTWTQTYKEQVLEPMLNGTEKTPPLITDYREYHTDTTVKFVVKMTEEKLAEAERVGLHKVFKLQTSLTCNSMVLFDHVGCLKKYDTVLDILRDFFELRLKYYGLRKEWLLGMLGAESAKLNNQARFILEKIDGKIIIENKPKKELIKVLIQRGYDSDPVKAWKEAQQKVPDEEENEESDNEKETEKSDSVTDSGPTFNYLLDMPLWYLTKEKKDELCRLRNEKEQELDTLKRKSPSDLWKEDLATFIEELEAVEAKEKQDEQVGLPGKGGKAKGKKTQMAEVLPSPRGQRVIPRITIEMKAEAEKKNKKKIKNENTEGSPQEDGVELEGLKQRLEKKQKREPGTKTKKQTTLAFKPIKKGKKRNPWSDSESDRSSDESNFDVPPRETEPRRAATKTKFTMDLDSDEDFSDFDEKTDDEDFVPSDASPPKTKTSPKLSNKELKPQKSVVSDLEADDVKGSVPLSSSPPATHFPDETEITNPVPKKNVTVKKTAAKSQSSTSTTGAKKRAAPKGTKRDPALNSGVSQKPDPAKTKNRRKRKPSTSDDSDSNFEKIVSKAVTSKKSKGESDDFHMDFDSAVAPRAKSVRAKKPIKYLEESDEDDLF
# Experimental: Four concentrations were used and IC50 was calculated.
# Compound 3a,b,c,e were evaluated for topoisomerase IIα inhibitory activity utilizing the human DNA topoisomerase ELISA kit (MBS2885049) and following the provided procedure: • Standards and the tested compound were dissolved in sample diluent and tenfold serial dilution was achieved. • Biotin-conjugated antibody and avidin conjugated Horseradish Peroxidase (HRP-avidin) were diluted to tenfolds. • 100 µL of each concentration of standard or test compounds were added to each well and incubated at 37 °C for 1 h. • Removal of the liquid in each well was done. • To each well 100 µL of Biotin-conjugated antibody solution was added followed by incubation for 1 h at 37 °C. • The microtiter plate was allowed to aspirate and washed 3 times. • 100 µL of avidin conjugated Horseradish Peroxidase (HRP-avidin) solution was added to each well and incubatation for 1 h at 37 °C was achieved. • The plate was aspirated and washed 5 times. • Addition of 90 µL of 3,3′,5,5′-tetramethylbenzidine (TMB) substrate to each well followed by plate incubated for 30 min at 37 °C and protection from light was done. • 50 µL stop solution was added.
structure (smiles),measurement,setting,value
"COc1cccc2c1C(=O)c1c(O)c3c(c(O)c1C2=O)C[C@@](O)(C(=O)CO)C[C@@H]3O[C@H]1C[C@H](N)[C@H](O)[C@H](C)O1 [Doxorubicin, reference compound]",Apoptosis %Early,leukemia SR cells [1],5.88%
same,Apoptosis %Late,leukemia SR cells [1],12.21%
same,Apoptosis %Total,leukemia SR cells [1],22.17%
same,Necrosis,leukemia SR cells [1],4.08%
same,increase of cells at pre-G1 phase vs control,leukemia SR cells [2],8.62 folds
same,%G0-G1,"leukemia SR cells [2]; 3e at 1.90 µM, 24 h",25.18%
same,%G2-M,"leukemia SR cells [2]; 3e at 1.90 µM, 24 h",46.06%
same,%Pre-G1,"leukemia SR cells [2]; 3e at 1.90 µM, 24 h",22.17%
same,%S,"leukemia SR cells [2]; 3e at 1.90 µM, 24 h",28.76%
same,IC50,topoisomerase IIα,610 nM

# Reference: PMC10940605, “Design, synthesis and in vitro anticancer activity of some new lomefloxacin derivatives” (Scientific Reports, 2024)
